# US20070021434A1, “NON-NUCLEOSIDE ANTI-HEPACIVIRUS AGENTS AND USES THEREOF” (Migenix Inc., priority 2005, published 2007)
# Molecular target: HCV RdRp (NS5B) (UniProt P26663)
# Format: biochemical, hepatitis C virus
# Chain of HCV RdRp (NS5B) (P26663 whole entry, looked up): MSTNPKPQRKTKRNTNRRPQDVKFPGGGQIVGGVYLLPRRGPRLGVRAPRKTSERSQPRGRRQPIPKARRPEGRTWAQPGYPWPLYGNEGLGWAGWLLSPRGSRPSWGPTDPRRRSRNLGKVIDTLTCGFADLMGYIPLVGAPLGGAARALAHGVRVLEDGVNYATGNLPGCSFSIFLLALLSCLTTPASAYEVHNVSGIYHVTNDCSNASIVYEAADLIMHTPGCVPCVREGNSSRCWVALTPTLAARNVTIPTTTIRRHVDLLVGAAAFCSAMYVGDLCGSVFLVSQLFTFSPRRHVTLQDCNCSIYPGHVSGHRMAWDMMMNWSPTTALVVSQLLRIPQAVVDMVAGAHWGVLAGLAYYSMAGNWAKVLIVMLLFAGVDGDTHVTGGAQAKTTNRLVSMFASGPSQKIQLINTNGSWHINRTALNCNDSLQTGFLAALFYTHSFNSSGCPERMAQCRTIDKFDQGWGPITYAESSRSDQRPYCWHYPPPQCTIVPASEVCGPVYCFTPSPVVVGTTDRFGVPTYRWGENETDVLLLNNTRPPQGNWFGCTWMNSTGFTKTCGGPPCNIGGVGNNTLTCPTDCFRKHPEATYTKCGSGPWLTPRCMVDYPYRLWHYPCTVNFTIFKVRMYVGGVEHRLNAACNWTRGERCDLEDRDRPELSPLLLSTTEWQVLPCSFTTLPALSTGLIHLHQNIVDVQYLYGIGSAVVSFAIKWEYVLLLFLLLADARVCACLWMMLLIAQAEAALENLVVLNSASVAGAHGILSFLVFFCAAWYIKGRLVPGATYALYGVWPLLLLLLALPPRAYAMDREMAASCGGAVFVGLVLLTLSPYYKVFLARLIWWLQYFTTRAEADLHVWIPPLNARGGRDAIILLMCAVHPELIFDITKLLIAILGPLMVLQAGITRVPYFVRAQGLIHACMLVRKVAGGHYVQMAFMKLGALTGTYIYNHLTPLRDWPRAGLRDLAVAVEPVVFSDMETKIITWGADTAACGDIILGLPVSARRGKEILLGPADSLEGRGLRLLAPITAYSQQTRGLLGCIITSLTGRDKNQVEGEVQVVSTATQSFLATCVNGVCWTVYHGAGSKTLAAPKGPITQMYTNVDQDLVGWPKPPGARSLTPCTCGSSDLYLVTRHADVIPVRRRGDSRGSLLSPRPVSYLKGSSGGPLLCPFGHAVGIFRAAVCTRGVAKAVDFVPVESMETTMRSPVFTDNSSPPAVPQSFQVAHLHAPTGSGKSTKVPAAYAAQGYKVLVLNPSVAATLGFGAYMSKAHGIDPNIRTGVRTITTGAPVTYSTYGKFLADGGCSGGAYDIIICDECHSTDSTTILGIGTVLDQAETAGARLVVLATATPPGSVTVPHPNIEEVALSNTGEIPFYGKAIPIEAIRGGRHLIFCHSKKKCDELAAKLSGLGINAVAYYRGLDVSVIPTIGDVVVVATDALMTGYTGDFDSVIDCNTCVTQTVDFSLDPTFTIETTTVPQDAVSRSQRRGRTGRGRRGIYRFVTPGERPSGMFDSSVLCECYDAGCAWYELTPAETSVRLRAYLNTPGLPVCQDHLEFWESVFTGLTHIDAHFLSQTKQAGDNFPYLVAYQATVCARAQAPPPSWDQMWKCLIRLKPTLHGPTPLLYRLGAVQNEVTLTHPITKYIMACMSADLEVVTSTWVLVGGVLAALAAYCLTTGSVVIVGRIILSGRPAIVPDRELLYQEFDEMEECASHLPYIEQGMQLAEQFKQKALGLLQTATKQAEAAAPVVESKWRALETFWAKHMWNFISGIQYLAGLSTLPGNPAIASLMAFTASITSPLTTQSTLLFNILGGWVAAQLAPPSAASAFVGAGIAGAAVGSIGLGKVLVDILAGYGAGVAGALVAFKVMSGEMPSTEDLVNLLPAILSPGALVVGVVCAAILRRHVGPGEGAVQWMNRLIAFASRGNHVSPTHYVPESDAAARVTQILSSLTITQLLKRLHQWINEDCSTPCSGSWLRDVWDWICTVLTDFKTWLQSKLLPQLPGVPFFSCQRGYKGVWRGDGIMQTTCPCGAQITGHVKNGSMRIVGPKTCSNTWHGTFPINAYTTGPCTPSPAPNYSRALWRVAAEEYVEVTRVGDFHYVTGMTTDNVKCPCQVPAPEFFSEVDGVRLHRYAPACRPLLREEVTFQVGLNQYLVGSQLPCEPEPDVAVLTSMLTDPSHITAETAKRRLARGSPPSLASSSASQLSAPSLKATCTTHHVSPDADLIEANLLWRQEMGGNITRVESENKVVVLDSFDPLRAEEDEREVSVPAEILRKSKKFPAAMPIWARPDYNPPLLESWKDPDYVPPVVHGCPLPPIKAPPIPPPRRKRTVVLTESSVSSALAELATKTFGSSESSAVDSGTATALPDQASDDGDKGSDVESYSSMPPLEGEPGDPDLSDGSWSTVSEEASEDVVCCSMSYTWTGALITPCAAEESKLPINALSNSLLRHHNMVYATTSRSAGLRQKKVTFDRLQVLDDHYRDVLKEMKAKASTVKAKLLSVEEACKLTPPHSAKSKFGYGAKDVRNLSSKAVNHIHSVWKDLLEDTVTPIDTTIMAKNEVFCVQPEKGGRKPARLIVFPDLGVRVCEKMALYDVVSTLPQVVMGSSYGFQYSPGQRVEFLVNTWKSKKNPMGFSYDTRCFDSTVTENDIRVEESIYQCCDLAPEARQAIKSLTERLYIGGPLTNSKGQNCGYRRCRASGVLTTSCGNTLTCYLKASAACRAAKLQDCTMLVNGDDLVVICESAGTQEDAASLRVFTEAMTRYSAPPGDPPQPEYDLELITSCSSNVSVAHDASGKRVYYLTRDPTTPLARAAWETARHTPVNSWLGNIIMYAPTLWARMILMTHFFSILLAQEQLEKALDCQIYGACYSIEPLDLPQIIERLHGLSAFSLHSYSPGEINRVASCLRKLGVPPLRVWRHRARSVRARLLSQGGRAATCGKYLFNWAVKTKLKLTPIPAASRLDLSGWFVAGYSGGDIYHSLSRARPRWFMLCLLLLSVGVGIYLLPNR
row,SMILES,IC50
1,"Cc1ccc(NC(=O)[C@H](CCCCN)NC(=O)Nc2ccc(OCc3ccccc3F)cc2)cc1 [Compound 248, (S)-6-AMINO-2-{3-[4-(2-FLUORO-BENZYLOXY)-PHENYL]-UREIDO}-HEXANOIC ACID P-TOLYLAMIDE]",10 to 50 µM
2,"O=C(Nc1ccc(C2CCCCC2)cc1)C1CNCCN1C(=O)OCC1c2ccccc2-c2ccccc21 (racemic) [Compound 156, (+/−)-2-(4-CYCLOHEXYL-PHENYLCARBAMOYL)-PIPERAZINE-1-CARBOXYLIC ACID 9H-FLUOREN-9-YLMETHYL ESTER]",> 50 µM
3,"Cc1ccc(NC(=O)C(CCCCN)NC(=O)CNCCc2c[nH]c3ccccc23)cc1 [Compound 335, (S)-6-AMINO-2-{2-[2-(1H-INDOL-3-YL)-ETHYLAMINO]-ACETYLAMINO}-HEXANOIC ACID P-TOLYLAMIDE]",> 50 µM
4,"Cc1ccc(NC(=O)C(CCCCN)NC(=O)NC(C)c2cccc3ccccc23)cc1 [Compound 96, (R,S)-6-AMINO-2-[3-(1-NAPHTHALEN-1-YL-ETHYL)-UREIDO]-HEXANOIC ACID P-TOLYLAMIDE]",> 50 µM
5,"Cc1ccc(NCC(=O)N[C@@H](CCCCN)C(=O)Nc2ccc(C)cc2)cc1 [Compound 356, (S)-6-AMINO-2-(2-P-TOLYLAMINO-ACETYLAMINO)-HEXANOIC ACID P-TOLYLAMIDE]",> 50 µM
6,"Cc1ccc(NC(=O)C(CCCNC(=N)N(C)C)NC(=O)OCC2c3ccccc3-c3ccccc32)cc1 [Compound 111, (S)-[4-(3,3-DIMETHYL-GUANIDINO)-1-P-TOLYLCARBAMOYL-BUTYL]-CARBAMIC ACID 9H-FLUOREN-9-YLMETHYL ESTER]",> 50 µM
7,"Cc1ccc(COc2ccc(NC(=O)NC(CCCCN)C(=O)Nc3ccc(C)cc3)cc2)cc1 [Compound 301, (S)-6-AMINO-2-{3-[4-(4-METHYL-BENZYLOXY)-PHENYL]-UREIDO}-HEXANOIC ACID P-TOLYLAMIDE]",> 50 µM
8,"NCCCC[C@H](NC(=O)c1cccc2ccccc12)C(=O)Nc1ccc(CN(C(=O)c2ccco2)C2CCCCC2)cc1 [Compound 24, (S)-FURAN-2-CARBOXYLIC ACID (4-{6-AMINO-2-[(NAPHTHALENE-1-CARBONYL)-AMINO]-HEXANOYLAMINO}-BENZYL)-CYCLOHEXYL-AMIDE]",10 to 50 µM
9,"NCCCC[C@H](NC(=O)OCC1c2ccccc2-c2ccccc21)C(=O)Nc1ccc(CN(C(=O)c2ccco2)C2CCCCC2)cc1 [Compound 6, (S)-[5-AMINO-1-(4-{[CYCLOHEXYL-(FURAN-2-CARBONYL)-AMINO]-METHYL}-PHENYLCARBAMOYL)-PENTYL]-CARBAMIC ACID 9H-FLUOREN-9-YL METHYL ESTER]",< 10 µM
10,"Cc1ccc(NC(=O)C(CCCCN)NC(=O)C(N)Cc2c[nH]c3ccccc23)cc1 [Compound 100, (S,S)-6-AMINO-2-[2-AMINO-3-(1H-INDOL-3-YL)-PROPIONYLAMINO]-HEXANOIC ACID P-TOLYLAMIDE]",> 50 µM
11,"N[C@@H](CCNC(=O)OCC1c2ccccc2-c2ccccc21)C(=O)Nc1ccc(CN(C(=O)c2ccco2)C2CCCCC2)cc1 [Compound 14, (S)-[3-AMINO-3-(4-{[CYCLOHEXYL-(FURAN-2-CARBONYL)-AMINO]-METHYL}-PHENYLCARBAMOYL)-PROPYL]-CARBAMIC ACID 9H-FLUOREN-9-YLMETHYL ESTER]",10 to 50 µM
12,"Cc1ccc(NC(=O)C(CCCCN)NC(=O)NCc2ccccc2)cc1 [Compound 168, (R)-6-AMINO-2-(3-BENZYL-UREIDO)-HEXANOIC ACID P-TOLYLAMIDE]",> 50 µM
13,"Cc1ccc(NC(=O)[C@H](CCCCN)NC(=O)Nc2ccc(OCc3ccccc3)cc2)cc1C [Compound 254, (S)-6-AMINO-2-[3-(4-BENZYLOXY-PHENYL)-UREIDO]-HEXANOIC ACID (3,4-DIMETHYL-PHENYL)-AMIDE]",10 to 50 µM
14,"O=C(CC1CNCCN1C(=O)Nc1ccc2c(c1)Cc1ccccc1-2)Nc1ccc(C2CCCCC2)cc1 (centres unmarked) [Compound 162, 2-[(4-CYCLOHEXYL-PHENYLCARBAMOYL)-METHYL]-PIPERAZINE-1-CARBOXYLIC ACID (9H-FLUOREN-2-YL)-AMIDE]",10 to 50 µM
15,"Cc1ccc(NC(=O)C(CCCCN)NC(=O)C(N)Cc2cccc3ccccc23)cc1 [Compound 61, (S,R)-6-AMINO-2-(2-AMINO-3-NAPHTHALEN-1-YL-PROPIONYLAMINO)-HEXANOIC ACID P-TOLYLAMIDE]",> 50 µM
16,"Cc1ccc(NC(=O)[C@H](CCCCN)NC(=O)Nc2ccc(OCc3ccccn3)cc2)cc1 [Compound 299, (S)-6-AMINO-2-{3-[4-(PYRIDIN-2-YLMETHOXY)-PHENYL]-UREIDO}-HEXANOIC ACID P-TOLYLAMIDE]",10 to 50 µM
17,"Cc1ccc(NC(=O)[C@H](CCCCN)NS(=O)(=O)c2cc(Cl)sc2Cl)cc1 [Compound 395, (S)-6-AMINO-2-(2,5-DICHLORO-THIOPHENE-3-SULFONYLAMINO)-HEXANOIC ACID P-TOLYLAMIDE]",> 50 µM
18,"COc1ccc(CNC(=O)N[C@@H](CCCCN)C(=O)Nc2ccc(C)cc2)cc1 [Compound 139, (S)-6-AMINO-2-[3-(4-METHOXY-BENZYL)-UREIDO]-HEXANOIC ACID P-TOLYLAMIDE]",> 50 µM
19,"Cc1cc2cc(NC(=O)[C@H](CCCNC(=O)CN)NC(=O)OCC3c4ccccc4-c4ccccc43)ccc2[nH]1 [Compound 238, (S)-[4-(2-AMINO-ACETYLAMINO)-1-(2-METHYL-1H-INDOL-5-YLCARBAMOYL)-BUTYL]-CARBAMIC ACID 9H-FLUOREN-9-YLMETHYL ESTER]",< 10 µM

row,SMILES,IC50
1,"Cc1ccc(NC(=O)[C@H](CCCCN)NC(=O)CNC2Cc3ccccc3C2)cc1 [Compound 336, (S)-6-AMINO-2-[2-(INDAN-2-YLAMINO)-ACETYLAMINO]-HEXANOIC ACID P-TOLYLAMIDE]",> 50 µM
2,"COc1cccc(CNCC(=O)N[C@@H](CCCCN)C(=O)Nc2ccc(C)cc2)c1 [Compound 342, (S)-6-AMINO-2-[2-(3-METHOXY-BENZYLAMINO)-ACETYLAMINO]-HEXANOIC ACID P-TOLYLAMIDE]",> 50 µM
3,"Cc1ccc(NC(=O)C(CCCNC(N)=O)NC(=O)OCC2c3ccccc3-c3ccccc32)cc1 [Compound 113, (S)-(1-P-TOLYLCARBAMOYL-4-UREIDO-BUTYL)-CARBAMIC ACID 9H-FLUOREN-9-YLMETHYL ESTER]",> 50 µM
4,"Cc1cccc(NC(=O)[C@H](CCCCN)NC(=O)OCC2c3ccccc3-c3ccccc32)c1 [Compound 47, (S)-(5-AMINO-1-M-TOLYLCARBAMOYL-PENTYL)-CARBAMIC ACID 9H-FLUOREN-9-YLMETHYL ESTER]",> 50 µM
5,"NCCC(=O)Nc1ccccc1NC(=O)CNC(=O)OCC1c2ccccc2-c2ccccc21 [Compound 312, {[2-(3-AMINO-PROPIONYLAMINO)-PHENYLCARBAMOYL]-METHYL}-CARBAMIC ACID 9H-FLUOREN-9-YLMETHYL ESTER]",> 50 µM
6,"NCCCC[C@H](NC(=O)OCC1c2ccccc2-c2ccccc21)C(=O)Nc1cccc(C(F)(F)F)c1 [Compound 218, (S)-[5-AMINO-1-(3-TRIFLUOROMETHYL-PHENYLCARBAMOYL)-PENTYL]-CARBAMIC ACID 9H-FLUOREN-9-YLMETHYL ESTER]",> 50 µM
7,"Cc1ccc(NC(=O)C(CCCCN)NC(=O)CNCc2ccccc2C)cc1 [Compound 338, (S)-6-AMINO-2-[2-(2-METHYL-BENZYLAMINO)-ACETYLAMINO]-HEXANOIC ACID P-TOLYLAMIDE]",> 50 µM
8,"NCCCCC(NC(=O)OCC1c2ccccc2-c2ccccc21)C(=O)NC1CCCCC1 (stereo in doubt) [Compound 22, (S)-(5-AMINO-1-CYCLOHEXYLCARBAMOYL-PENTYL)-CARBAMIC ACID 9H-FLUOREN-9-YLMETHYL ESTER]",10 to 50 µM
9,"Cc1ccc(NC(=O)[C@H](CCCCN)NS(=O)(=O)c2ccc(C)cc2)cc1 [Compound 396, (S)-6-AMINO-2-(TOLUENE-4-SULFONYLAMINO)-HEXANOIC ACID P-TOLYLAMIDE]",> 50 µM
10,"COc1ccc(C=Cc2ccc(NC(=O)N[C@@H](CCCCN)C(=O)Nc3ccc(C)cc3)cc2)cc1 [Compound 252, (S)-6-AMINO-2-(3-{4-[2-(4-METHOXY-PHENYL)-VINYL]-PHENYL}-UREIDO)-HEXANOIC ACID P-TOLYLAMIDE]",< 10 µM
11,"NCc1ccc(NC(=O)[C@@H](NC(=O)OCC2c3ccccc3-c3ccccc32)c2ccccc2)cc1 [Compound 315, (S)-[(4-AMINOMETHYL-PHENYLCARBAMOYL)-PHENYL-METHYL]-CARBAMIC ACID 9H-FLUOREN-9-YLMETHYL ESTER]",10 to 50 µM
12,"Cc1ccc(NC(=O)[C@H](CCCCN)NC(=O)Nc2ccc(OCc3ccc(F)cc3)cc2)cc1 [Compound 250, (S)-6-AMINO-2-{3-[4-(4-FLUORO-BENZYLOXY)-PHENYL]-UREIDO}-HEXANOIC ACID P-TOLYLAMIDE]",10 to 50 µM
13,"Cc1ccc(NC(=O)C(CN)NC(=O)OCC2c3ccccc3-c3ccccc32)cc1 [Compound 103, (S)-(2-AMINO-1-P-TOLYLCARBAMOYL-ETHYL)-CARBAMIC ACID 9H-FLUOREN-9-YLMETHYL ESTER]",> 50 µM
14,"CNC(Cc1c[nH]c2ccccc12)C(=O)NC(CCCCN)C(=O)Nc1ccc(C)cc1 [Compound 90, (S)-6-AMINO-2-[3-(1H-INDOL-3-YL)-2-(S)-METHYLAMINO-PROPIONYLAMINO]-HEXANOIC ACID P-TOLYLAMIDE]",> 50 µM
15,"O=C(CC1CNCCN1C(=O)OCC1c2ccccc2-c2ccccc21)Nc1ccc(C2CCCCC2)cc1 (centres unmarked) [Compound 155, 2-[(4-CYCLOHEXYL-PHENYLCARBAMOYL)-METHYL]-PIPERAZINE-1-CARBOXYLIC ACID 9H-FLUOREN-9-YLMETHYL ESTER]",10 to 50 µM
16,"NCCC[C@@H](NC(=O)OCC1c2ccccc2-c2ccccc21)C(=O)Nc1ccc(CN(C(=O)c2ccco2)C2CCCCC2)cc1 [Compound 16, (R)-[4-AMINO-1-(4-{[CYCLOHEXYL-(FURAN-2-CARBONYL)-AMINO]-METHYL}-PHENYLCARBAMOYL)-BUTYL]-CARBAMIC ACID 9H-FLUOREN-9-YLMETHYL ESTER]",< 10 µM
17,"Cc1ccc(NC(=O)C(CCCCN)NC(=O)CCc2c[nH]c3ccccc23)cc1 [Compound 89, (S)-6-AMINO-2-(3-1H-INDOL-3-YL-PROPIONYLAMINO)-HEXANOIC ACID P-TOLYLAMIDE]",> 50 µM
18,"Cc1ccc(NC(=O)C(Cc2ccc(CN)cc2)NC(=O)OCC2c3ccccc3-c3ccccc32)cc1 [Compound 129, (S)-[2-(4-AMINOMETHYL-PHENYL)-1-P-TOLYLCARBAMOYL-ETHYL]-CARBAMIC ACID 9H-FLUOREN-9-YLMETHYL ESTER]",< 10 µM
19,"Cc1ccc(NC(=O)[C@H](CCCCN)NC(=O)CNc2ccccc2F)cc1 [Compound 359, (S)-6-AMINO-2-[2-(2-FLUORO-PHENYLAMINO)-ACETYLAMINO]-HEXANOIC ACID P-TOLYLAMIDE]",> 50 µM
